Reference: US9763874B2, “Nanoparticles loaded with chemotherapeutic antitumoral drug” (priority 2011, dated 2017)

How the values were obtained:
HCC = conditions: IV infusion in HCC; cited from earlier work
healthy Wistar rats = assay: Example 2: adverse effects after a single IV bolus injection (mortality, lung injuries); type: in vivo, rat; conditions: 7.5 mg/kg single IV bolus
Method: The aim of the present in vivo study was to establish and assess a rat model able to induce toxicological signs and lung injuries similar to severe pulmonary adverse events observed in said clinical trial.
The dose levels of 5, 7.5 and 10 mg/kg were chosen according to previous in vivo studies, they respectively correspond to 30 mg/m2, 45 mg/m2 and 60 mg/m2 human doses.
The study involved finally 123 male Wistar rats.
Rats were weighted and distributed according to their individual body weight to form […] the day of IV treatment.
Drug suspension was administered according to the body weight of rat determined just before the administration, so as to administer a dose volume of 670 μl of a 3.71 mg/ml suspension to a 250 g rat. • The rats from groups 13 to 16 received a single IV injection of Doxorubicin at 7.5 mg/kg equivalent Doxorubicin HCl (Q1Dx1). […] Solution was administered according to the body weight of rat determined just before the administration, so as to administer a dose volume of 670 μl solution to a 250 g rat. • The rats from group 21 (Untreated control group) received no treatment.
Treatment allocation was decided at random and was as disclosed in Table 2.

unresectable HCC = conditions: patients with unresectable HCC; cited from earlier work

Row | SMILES | objective response rate (HCC) | mortality and lung injuries (healthy Wistar rats) | overall survival over placebo (unresectable HCC)
1 | COc1cccc2c1C(=O)c1c(O)c3c(c(O)c1C2=O)C[C@@](O)(C(=O)CO)C[C@@H]3O[C@H]1C[C@H](N)[C@H](O)[C@H](C)O1 [Doxorubicin, doxorubicin] | 5-10% | Neither mortality, nor lung injuries | –
2 | CNC(=O)c1cc(Oc2ccc(NC(=O)Nc3ccc(Cl)c(C(F)(F)F)c3)cc2)ccn1 [sorafenib] | – | – | increase even modest
